Measured values from ChEMBL document CHEMBL1152429, “Design and synthesis of new 1,3-benzthiazinan-4-one derivatives as selective cyclooxygenase (COX-2) inhibitors” (Bioorg Med Chem, 2009).

Organism: Ovis aries
Assay: Selectivity index, ratio of IC50 for ovine COX1 to IC50 for ovine COX2

Structure (SMILES)	Ratio IC50
Cc1ccc(N2C(=O)c3ccccc3SC2c2ccc(S(C)(=O)=O)cc2)cc1 (configuration not stated)	252

Biological target: T1, Prostaglandin G/H synthase 1 (Ovis aries, UniProt P05979)
T1 sequence (P05979 whole entry): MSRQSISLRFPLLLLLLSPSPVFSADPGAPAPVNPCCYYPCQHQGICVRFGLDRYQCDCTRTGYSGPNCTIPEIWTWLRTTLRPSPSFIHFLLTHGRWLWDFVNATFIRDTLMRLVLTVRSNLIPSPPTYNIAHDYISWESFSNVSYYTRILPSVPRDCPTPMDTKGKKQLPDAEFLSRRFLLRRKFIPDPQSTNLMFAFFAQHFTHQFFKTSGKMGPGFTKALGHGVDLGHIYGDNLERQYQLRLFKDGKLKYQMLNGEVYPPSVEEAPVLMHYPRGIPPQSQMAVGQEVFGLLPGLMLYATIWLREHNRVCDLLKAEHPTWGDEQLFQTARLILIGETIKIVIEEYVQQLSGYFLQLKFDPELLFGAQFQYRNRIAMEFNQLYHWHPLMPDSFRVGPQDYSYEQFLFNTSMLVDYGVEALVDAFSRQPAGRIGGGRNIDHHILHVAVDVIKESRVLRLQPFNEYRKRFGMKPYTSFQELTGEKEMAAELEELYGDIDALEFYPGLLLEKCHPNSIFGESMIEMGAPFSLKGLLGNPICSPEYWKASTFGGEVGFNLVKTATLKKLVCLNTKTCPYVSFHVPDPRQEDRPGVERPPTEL
Description: Inhibition of ovine COX1 by chemiluminescence assay

Structure (SMILES)	IC50
Cc1ccc(N2C(=O)c3ccccc3SC2c2ccc(S(C)(=O)=O)cc2)cc1 (configuration not stated)	16.1 µM
CS(=O)(=O)c1ccc(C2Sc3ccccc3C(=O)N2Cc2ccccc2)cc1 (configuration not stated)	15.8 µM
CS(=O)(=O)c1ccc(C2Sc3ccccc3C(=O)N2CCc2ccccc2)cc1 (configuration not stated)	15.9 µM
CS(=O)(=O)c1ccc(C2Sc3ccccc3C(=O)N2c2ccc(F)cc2)cc1 (configuration not stated)	13 µM
COc1ccc(N2C(=O)c3ccccc3SC2c2ccc(S(C)(=O)=O)cc2)cc1 (configuration not stated)	14.8 µM
CS(=O)(=O)c1ccc(C2Sc3ccccc3C(=O)N2c2ccccc2)cc1 (configuration not stated)	16.5 µM
